Calls of active or inactive are those of the source.
What was measured:
[1] = viability inhibitors of stage V gametocytes – luminescence, dose response (AID 1117278); format: functional, cell-based;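 also: gametocytes exposed to compound for 24 hours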
[2] = A cytotoxicity screen of small molecule inhibitors of the PhoP region in Salmonella typhi identified in the primary screen. [Related pubchem assays: 1850, 1864, 1985 ]; format: functional
[3] = viability loss in human Jurkat cells – cell-based, luminescence, cytotoxicity control for P. falciparum gametocyte viability project, dose response (AID 1117277); format: functional;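 also: potency reflects loss of cellular ATP meaning fewer viable cells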
[4] = target: Prothrombin (Homo sapiens, UniProt P00734); test: Thrombin 1536 HTS Dose Response Confirmation. [Related pubchem assays: 1046 (Thrombin 1536 HTS; hits were confirmed in this assay)]; format: functional
[5] = toxicity to human HepG2 hepatoma cells – cell-based, plate reader, dry powder samples, cytotoxicity control, dose response (AID 1159569); format: functional;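 also: inhibitor potency with signal falling toward the positive control level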
[6] = growth inhibition of yeast DHODH-expressing 3D7 parasites – SYBR Green, dry powder samples, dose response (AID 1159570); format: functional, cell-based;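 also: parasite growth measured after 72 hours of compound exposure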
[7] = Dd2 malaria parasite growth inhibition potency – SYBR Green, dry powder samples, dose response (AID 1159566); format: functional, cell-based;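 also: potency for growth inhibition with lower SYBR green DNA signal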
[8] = growth inhibition of PfATP4-mutant resistant parasites – NITD609-resistant line, SYBR Green, dry powder, dose response (AID 1159571); format: functional, cell-based;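 also: parasites synchronized at ring stage by sorbitol before testing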
[9] = P. falciparum Dd2 growth inhibitors, dose response, SYBR Green, cherry-picked samples (AID 1159567); format: functional, cell-based
[10] = target: T1, Calpain-2 catalytic subunit (Sus scrofa, UniProt P43367); test: m-calpain protease blockers, concentration series – biochemical, fluorogenic peptide substrate, dose response (AID 1420); format: functional
T1 sequence (P43367 whole entry): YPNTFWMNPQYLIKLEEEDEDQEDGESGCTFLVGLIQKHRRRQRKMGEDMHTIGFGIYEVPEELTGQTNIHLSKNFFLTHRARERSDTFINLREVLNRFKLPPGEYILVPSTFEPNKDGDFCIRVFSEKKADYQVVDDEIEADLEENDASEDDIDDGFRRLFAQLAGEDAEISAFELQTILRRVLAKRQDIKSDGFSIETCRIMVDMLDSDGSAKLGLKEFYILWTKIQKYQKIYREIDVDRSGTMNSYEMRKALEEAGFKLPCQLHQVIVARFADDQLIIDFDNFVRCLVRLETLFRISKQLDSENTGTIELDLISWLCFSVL

[11] = target: T2, Polyadenylate-binding protein 1 (Homo sapiens, UniProt P11940); test: MLLE domain peptide-binding blockers, IC50 – biochemical, fluorescence polarization, FITC-PAM2 peptide, dose response (AID 602259); format: functional; settings: read-out: IC50_Mean
T2 sequence (P11940 whole entry, the tested form may be a part): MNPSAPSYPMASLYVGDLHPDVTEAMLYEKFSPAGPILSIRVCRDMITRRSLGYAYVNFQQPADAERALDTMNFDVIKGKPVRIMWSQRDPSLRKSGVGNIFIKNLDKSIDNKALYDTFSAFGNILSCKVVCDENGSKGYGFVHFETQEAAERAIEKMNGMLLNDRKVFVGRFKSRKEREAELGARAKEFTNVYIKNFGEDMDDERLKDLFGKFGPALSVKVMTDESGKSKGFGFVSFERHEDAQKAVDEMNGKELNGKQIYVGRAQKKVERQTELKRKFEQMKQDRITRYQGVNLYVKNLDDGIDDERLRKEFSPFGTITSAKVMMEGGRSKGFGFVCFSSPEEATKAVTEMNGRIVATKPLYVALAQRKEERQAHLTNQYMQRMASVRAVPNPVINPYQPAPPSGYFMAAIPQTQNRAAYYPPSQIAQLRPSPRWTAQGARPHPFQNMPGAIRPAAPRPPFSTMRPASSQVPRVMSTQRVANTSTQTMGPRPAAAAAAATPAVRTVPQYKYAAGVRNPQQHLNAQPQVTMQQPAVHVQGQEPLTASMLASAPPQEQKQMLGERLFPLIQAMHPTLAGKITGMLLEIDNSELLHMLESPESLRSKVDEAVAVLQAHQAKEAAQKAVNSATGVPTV

[12] = target: T2, Polyadenylate-binding protein 1; test: MLLE binding blockers, Cy5 peptide tracer – biochemical, fluorescence polarization, Cy5-PAM2 peptide, secondary, miRNA deadenylation inhibitor project, dose response (AID 602260); format: functional; settings: read-out: IC50_Mean
[13] = target: T3, Mannose-6-phosphate isomerase (Homo sapiens, UniProt P34949); test: MPI inhibition at elevated mannose 6-phosphate – biochemical, fluorescence intensity, high mannose 6-phosphate, primary screen (AID 1220)
T3 sequence (P34949 whole entry): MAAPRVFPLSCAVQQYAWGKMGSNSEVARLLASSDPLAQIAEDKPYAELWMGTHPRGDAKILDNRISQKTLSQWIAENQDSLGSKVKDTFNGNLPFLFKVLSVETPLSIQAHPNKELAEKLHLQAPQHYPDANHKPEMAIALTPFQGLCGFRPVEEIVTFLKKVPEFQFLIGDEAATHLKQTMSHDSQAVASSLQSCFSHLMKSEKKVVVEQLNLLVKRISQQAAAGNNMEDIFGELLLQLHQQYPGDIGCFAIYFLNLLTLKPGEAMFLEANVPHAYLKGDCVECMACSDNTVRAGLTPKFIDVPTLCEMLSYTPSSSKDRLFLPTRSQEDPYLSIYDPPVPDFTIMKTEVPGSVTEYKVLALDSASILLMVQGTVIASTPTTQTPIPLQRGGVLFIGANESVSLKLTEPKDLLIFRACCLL

[14] = target: Glucose-6-phosphate 1-dehydrogenase (Homo sapiens, UniProt P11413); test: inhibition of Homo sapiens G6PD, dose series – biochemical, fluorescence, selectivity assay for P. falciparum G6PD inhibitor project, dose response (AID 504792); format: functional
Sequence of Glucose-6-phosphate 1-dehydrogenase (P11413 whole entry): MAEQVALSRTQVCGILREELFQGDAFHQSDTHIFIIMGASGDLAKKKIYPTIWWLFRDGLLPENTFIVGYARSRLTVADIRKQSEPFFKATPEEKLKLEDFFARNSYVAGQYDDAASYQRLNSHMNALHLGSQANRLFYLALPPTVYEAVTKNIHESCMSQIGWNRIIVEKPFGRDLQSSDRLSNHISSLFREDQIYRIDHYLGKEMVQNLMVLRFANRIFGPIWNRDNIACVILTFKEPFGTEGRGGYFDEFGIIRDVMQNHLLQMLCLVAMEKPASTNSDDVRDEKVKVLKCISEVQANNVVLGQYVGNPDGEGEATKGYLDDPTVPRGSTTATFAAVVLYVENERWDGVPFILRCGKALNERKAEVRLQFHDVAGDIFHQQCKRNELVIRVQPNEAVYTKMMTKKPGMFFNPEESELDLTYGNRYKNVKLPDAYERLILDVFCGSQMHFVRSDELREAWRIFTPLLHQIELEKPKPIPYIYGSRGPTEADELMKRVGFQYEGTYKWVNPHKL

[15] = A2780 cell killing – plate reader, dry powder samples, cytotoxicity control, dose response (AID 743046); format: functional, cell-based
[16] = IGROV1 cell killing – plate reader, dry powder samples, PAX8 inhibitor project, dose response (AID 743043); format: functional, cell-based; settings: IGROV-1
[17] = OVCAR8 cell viability loss – plate reader, dry powder samples, PAX8 project, dose response (AID 743197); format: functional, cell-based; settings: OVCAR-8
[18] = OVCAR-3 cell viability loss – plate reader, dry powder samples, PAX8 inhibitor project, dose response (AID 743044); format: functional, cell-based
[19] = target: Paired box protein Pax-8 (Homo sapiens, UniProt Q06710); test: PAX8 transcriptional activity inhibition in RMG-I – RMG-I cells, luciferase, cherry-pick, dose response (AID 687027); format: functional, cell-based;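 also: luciferase reporter driven by Pax8 target thyroperoxidase promoter measured by SteadyGlo luminescence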
Sequence of Paired box protein Pax-8 (Q06710 whole entry): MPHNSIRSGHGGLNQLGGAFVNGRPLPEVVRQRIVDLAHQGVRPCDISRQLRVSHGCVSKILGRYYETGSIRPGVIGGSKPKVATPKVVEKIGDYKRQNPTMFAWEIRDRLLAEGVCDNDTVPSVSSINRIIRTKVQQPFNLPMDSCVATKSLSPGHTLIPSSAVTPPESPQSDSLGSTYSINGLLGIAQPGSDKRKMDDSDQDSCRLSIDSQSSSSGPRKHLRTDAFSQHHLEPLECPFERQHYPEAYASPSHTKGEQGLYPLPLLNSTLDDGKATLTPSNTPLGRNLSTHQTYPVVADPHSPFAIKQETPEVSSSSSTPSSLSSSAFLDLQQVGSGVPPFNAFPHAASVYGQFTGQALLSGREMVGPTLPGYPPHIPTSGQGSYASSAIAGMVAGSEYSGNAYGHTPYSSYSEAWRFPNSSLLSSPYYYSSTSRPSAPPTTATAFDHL

[20] = target: T4, Aminopeptidase N (Plasmodium falciparum FcB1/Columbia, UniProt O96935); test: malaria alanyl aminopeptidase activity blockers – biochemical, fluorogenic H-Leu-NHMec substrate, 1536-well (AID 1445); parameters: species or system Plasmodium falciparum 3D7, 3D7
T4 sequence (O96935 whole entry): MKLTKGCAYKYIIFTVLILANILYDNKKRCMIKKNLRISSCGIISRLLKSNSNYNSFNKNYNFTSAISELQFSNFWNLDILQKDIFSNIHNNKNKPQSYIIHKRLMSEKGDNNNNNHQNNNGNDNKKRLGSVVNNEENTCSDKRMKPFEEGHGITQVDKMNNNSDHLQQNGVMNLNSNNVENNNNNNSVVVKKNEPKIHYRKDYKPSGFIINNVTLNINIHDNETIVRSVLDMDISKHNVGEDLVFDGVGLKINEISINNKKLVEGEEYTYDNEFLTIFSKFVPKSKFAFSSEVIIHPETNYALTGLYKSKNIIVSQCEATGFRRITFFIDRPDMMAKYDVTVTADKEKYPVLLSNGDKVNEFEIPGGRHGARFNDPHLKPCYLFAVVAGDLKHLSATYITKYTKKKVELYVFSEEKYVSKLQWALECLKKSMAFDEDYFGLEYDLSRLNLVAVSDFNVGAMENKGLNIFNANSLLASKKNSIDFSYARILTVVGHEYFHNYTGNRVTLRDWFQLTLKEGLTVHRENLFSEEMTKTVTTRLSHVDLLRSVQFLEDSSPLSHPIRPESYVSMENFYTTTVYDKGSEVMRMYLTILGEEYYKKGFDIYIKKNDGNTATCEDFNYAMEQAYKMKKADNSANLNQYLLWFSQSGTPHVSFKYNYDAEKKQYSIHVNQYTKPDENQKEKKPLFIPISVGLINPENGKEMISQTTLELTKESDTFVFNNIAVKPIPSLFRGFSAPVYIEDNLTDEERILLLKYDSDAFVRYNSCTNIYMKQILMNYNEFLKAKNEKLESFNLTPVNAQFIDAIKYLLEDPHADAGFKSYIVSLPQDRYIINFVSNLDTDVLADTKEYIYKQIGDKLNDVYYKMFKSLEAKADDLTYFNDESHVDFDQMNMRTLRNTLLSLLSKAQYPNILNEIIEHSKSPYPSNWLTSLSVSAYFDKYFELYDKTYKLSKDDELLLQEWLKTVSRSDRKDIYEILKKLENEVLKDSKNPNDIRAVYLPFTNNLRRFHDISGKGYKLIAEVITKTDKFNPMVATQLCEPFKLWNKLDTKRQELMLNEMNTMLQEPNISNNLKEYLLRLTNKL

[21] = target: T5, Cytochrome P450 1A2 (Homo sapiens, UniProt P05177);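 also: PubChem cytochrome P450 panel assay, CYP1A2 panel member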
T5 sequence (P05177 whole entry): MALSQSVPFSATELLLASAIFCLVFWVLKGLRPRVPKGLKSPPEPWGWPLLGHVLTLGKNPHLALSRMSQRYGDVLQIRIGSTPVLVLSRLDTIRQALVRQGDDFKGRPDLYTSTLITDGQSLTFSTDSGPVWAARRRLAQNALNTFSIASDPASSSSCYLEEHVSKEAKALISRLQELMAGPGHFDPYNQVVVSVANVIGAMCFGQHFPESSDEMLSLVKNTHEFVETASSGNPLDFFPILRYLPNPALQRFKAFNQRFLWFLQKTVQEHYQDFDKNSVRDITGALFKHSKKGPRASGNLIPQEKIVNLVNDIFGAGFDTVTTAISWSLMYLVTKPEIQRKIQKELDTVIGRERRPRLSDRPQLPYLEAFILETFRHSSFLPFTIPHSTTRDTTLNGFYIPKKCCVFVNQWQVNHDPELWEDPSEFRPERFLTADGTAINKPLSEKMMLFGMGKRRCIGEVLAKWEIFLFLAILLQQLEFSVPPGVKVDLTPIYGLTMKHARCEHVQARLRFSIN

[22] = test system: HEK293; test: cells; format: functional, cell-based; settings: Homo sapiens
[23] = test system: HEK293; test: NOD2 signaling inhibitors in MDP-stimulated cells, cell-based, uHTS, luminescence (AID 2001); format: functional; settings: Homo sapiens
[24] = target: Genome polyprotein (dengue virus type 2, UniProt P29990); test: flavivirus cap methylation enzyme inhibition – biochemical, confirmation dose response, primary screen (AID 588689); format: functional
Sequence of Genome polyprotein (P29990 2492-3391 limits assumed): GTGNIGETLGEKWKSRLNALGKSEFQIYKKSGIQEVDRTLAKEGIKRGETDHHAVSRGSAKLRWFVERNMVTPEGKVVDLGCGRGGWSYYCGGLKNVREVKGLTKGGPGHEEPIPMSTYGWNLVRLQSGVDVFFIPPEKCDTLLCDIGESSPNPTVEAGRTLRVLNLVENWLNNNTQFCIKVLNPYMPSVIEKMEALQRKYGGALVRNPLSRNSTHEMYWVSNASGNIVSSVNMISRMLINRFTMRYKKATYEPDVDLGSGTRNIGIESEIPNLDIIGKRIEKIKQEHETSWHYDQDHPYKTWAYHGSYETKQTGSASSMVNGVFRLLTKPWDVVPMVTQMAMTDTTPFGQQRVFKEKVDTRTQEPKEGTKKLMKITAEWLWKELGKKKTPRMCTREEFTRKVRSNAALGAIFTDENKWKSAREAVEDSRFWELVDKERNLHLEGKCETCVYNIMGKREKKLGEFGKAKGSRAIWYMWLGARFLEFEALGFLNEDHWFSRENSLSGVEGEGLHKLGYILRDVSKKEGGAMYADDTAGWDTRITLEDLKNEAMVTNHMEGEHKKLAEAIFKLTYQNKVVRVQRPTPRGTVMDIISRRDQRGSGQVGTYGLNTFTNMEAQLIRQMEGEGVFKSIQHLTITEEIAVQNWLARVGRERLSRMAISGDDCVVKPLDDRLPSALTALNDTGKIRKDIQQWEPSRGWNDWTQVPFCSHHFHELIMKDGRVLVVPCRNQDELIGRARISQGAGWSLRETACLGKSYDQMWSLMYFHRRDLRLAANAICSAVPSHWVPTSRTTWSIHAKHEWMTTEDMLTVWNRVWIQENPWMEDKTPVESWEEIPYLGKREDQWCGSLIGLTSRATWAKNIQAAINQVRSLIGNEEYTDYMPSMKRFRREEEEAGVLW

[25] = test system: HEK293; test: cells; format: functional, cell-based; settings: Homo sapiens; remark: listed apart in the source
[26] = target: Cytochrome P450 2D6 (Homo sapiens, UniProt P10635);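 also: CYP2D6 member of a cytochrome P450 panel assay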
Sequence of Cytochrome P450 2D6 (P10635 whole entry): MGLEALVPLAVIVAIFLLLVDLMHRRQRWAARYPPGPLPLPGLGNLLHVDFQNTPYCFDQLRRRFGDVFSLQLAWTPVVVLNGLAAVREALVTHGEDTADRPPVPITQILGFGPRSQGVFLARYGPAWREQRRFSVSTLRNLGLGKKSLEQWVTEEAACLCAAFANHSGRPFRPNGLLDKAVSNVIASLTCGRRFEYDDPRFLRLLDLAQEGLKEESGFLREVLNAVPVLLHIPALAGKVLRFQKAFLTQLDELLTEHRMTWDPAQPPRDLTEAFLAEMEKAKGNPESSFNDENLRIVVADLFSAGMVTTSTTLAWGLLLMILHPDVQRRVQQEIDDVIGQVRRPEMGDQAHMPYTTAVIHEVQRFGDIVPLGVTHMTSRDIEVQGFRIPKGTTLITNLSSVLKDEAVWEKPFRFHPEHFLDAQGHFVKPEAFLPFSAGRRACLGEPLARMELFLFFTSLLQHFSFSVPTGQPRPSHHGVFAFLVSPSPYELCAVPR

In the case of Cc1nc(-c2ccc(C(=O)N3CCOCC3)cc2)cs1, the IC50 [1] is reported as > 109 µM (inactive), the EC50 [2] is reported as > 50 µM (active) and the IC50 [3] is reported as > 83.3 µM (inactive).
With Cn1nnc(CC[N+](C)(C)C)n1 the IC50 [4] was > 50 µM (not active).
In the case of COc1ccc(NC(=O)N(C)C[C@H]2Oc3cc(C#CCC(C)C)ccc3S(=O)(=O)N([C@H](C)CO)C[C@H]2C)cc1, the AC50 [5] is reported as 38.3 µM (active), the AC50 [6] is reported as 1.5 µM (active) and the AC50 [7] is reported as 1.21 µM (active). For the same compound, the AC50 [8] was 1.7 µM (active) and the AC50 [9] was 1.3 µM (active).
With O=C(COc1ccc([N+](=O)[O-])cc1)Nc1ccc(CN2CCOCC2)cc1 the IC50 [10] was 41.1 µM (not active).
For Cc1ccc(C(=O)N2C(CC(=O)Nc3ccc(Cl)cc3)C(=O)NC3CCCCC32)cc1 (centres undefined), the IC50 [4] was 3.25 µM (active).
For Cc1ccc(-c2nc(N)s[n+]2-c2ccccc2)cc1, the IC50 [11] was > 66 µM (inactive), the IC50 [12] was > 66 µM (inactive) and the IC50 [13] was 4.91 µM (active). For the same compound, the IC50 [14] was 27.2 µM (inactive).
With Cc1ccccc1/N=C/c1cccc(O)c1O the IC50 [13] was 11.2 µM (active).
With Cc1ccc(S(=O)(=O)Nc2ccc3c(c2)C(=O)N([C@H](C)CO)C[C@@H](C)[C@@H](CN(C)CC2CCCCC2)OCCCC[C@@H](C)O3)cc1 the AC50 [15] was 38.2 µM (active), the AC50 [16] was 38.8 µM (active) and the AC50 [17] was 40.4 µM (active). The AC50 [18] was 26.5 µM (active) and the AC50 [19] was 5.51 µM (active).
For O=S(=O)(Nc1nc(-c2sccc2Cl)cs1)c1cc(Cl)ccc1Cl, the IC50 [10] was 5 µM (not active), the IC50 [20] was 44.1 µM (active) and the AC50 [21] was 28.2 µM (inconclusive). The IC50 [22] was 10.4 µM (active), the IC50 [23] was 7.47 µM (active) and the IC50 [24] was 41.6 µM (active). For the same compound, the IC50 [25] was 17.7 µM (active) and the AC50 [26] was 28.2 µM (inconclusive).
With CCC(C)NS(=O)(=O)c1ccc(NS(C)(=O)=O)cc1 (centres undefined) the IC50 [1] was > 109 µM (inactive) and the IC50 [3] was > 83.3 µM (inactive).
In the case of CCOC(=O)C1CCN(Cc2c(O)ccc3ccccc23)CC1, the IC50 [13] is reported as > 50 µM (not active).
In the case of COc1ccc(/C=C/c2c(-c3ccc(OC)cc3)oc3cccnc23)cc1, the IC50 [1] is reported as > 109 µM (inactive) and the IC50 [3] is reported as > 83.3 µM (inactive).
In the case of C[C@@H]1CN([C@H](C)CO)C(=O)c2ccccc2-c2ccccc2CO[C@@H]1CN(C)Cc1ccc(C(F)(F)F)cc1, the AC50 [5] is reported as 21.5 µM (active), the AC50 [6] is reported as 3.53 µM (active) and the AC50 [7] is reported as 1.93 µM (active). The AC50 [8] was 1.82 µM (active) and the AC50 [9] was 2.16 µM (active).

Reference: ChEMBL document CHEMBL1201862, “PubChem BioAssay data set” (2004)
